Measurements: patent US20240000814A1, “TREATING ALCOHOL USE DISORDER USING PSILOCYBIN” (New York University, priority 2022, published 2024)
“And” between values parts separate entries of the source, which are not always exact repeats. Identical values can stand only once.

How the values were obtained:
AUD patients = experiment: Double-blind randomized trial of psilocybin-assisted treatment of AUD: drinking outcomes by timeline followback; assay type: in vivo, human; conditions: for % of Heavy drinking days (PHDD), mean: 32-week double-blind follow-up (weeks 5-36) after first dose, oral psilocybin 25 mg/70 kg then 25-40 mg/70 kg or diphenhydramine 50 mg then 50-100 mg at weeks 4 and 8, with psychotherapy; for Abstinence, NNT / Abstinence, OR / No heavy drinking, NNT / No heavy drinking, OR / WHO risk level Decrease 1, NNT / WHO risk level Decrease 1, OR / WHO risk level Decrease 2, NNT / WHO risk level Decrease 2, OR / WHO risk level Decrease 3, NNT / WHO risk level Decrease 3, OR: psilocybin vs diphenhydramine
Description: Design: In this double-blind trial, participants were offered 12 weeks of manualized psychotherapy and were randomly assigned to receive psilocybin vs. diphenhydramine during two day-long medication sessions at week 4 and 8. Outcomes were assessed over the 32-week double-blind period following the first dose of study medication.
Interventions: Study medications were psilocybin 25 mg/70 kg vs. diphenhydramine 50 mg (first session) and psilocybin 25-40 mg/70 kg vs. diphenhydramine 50-100 mg (second session). Psychotherapy included motivational enhancement therapy and cognitive-behavioral therapy.
Qualifying participants were assessed at screening, baseline (week 0), and weeks 4, 5, 8, 9, 12, 24, and 36. They were randomly assigned in a 1:1 ratio to receive either psilocybin or diphenhydramine, administered in two eight-hour sessions at weeks 4 and 8. All participants who completed the double-blind observation period (weeks 5-36) and still met safety criteria were offered an open-label psilocybin session at week 38, including four additional psychotherapy sessions and assessment for an additional 18 weeks. Participants received up to a total of $560 for completing assessments in the course of the trial, but were not reimbursed for attending the therapy and medication sessions.
All participants were offered a total of 12 psychotherapy sessions from a team of two therapists including a licensed psychiatrist: 4 before the first medication session, 4 between the first and second medication sessions, and 4 in the month following the second medication session. The psychotherapy, described in detail in a separate publication,^41 included motivational interviewing and cognitive behavioral therapy for AUD as well as material designed to help the participants to manage and make use of the psychoactive effects of the study medication.
Study medication was taken orally in a single opaque capsule of unvarying appearance and weight. Psilocybin doses were weight-based to control for participant body weight, which ranged from 49.0 to 116.1 (mean=78.3, SD=15.6) kg. Doses for the first session were psilocybin 25 mg/70 kg or diphenhydramine 50 mg. Participants received an increased dose in the second session if there were no dose-limiting adverse events and they agreed to the increase. The increased dose of psilocybin was 30 mg/70 kg if the participant's total score on the Pahnke-Richards Mystical Experience Questionnaire (MEQ)^42 was ≥0.6 in the first session (indicating a robust subjective response to the 25 mg/70 kg dose), or 40 mg/70 kg if the MEQ total score in the first session was <0.6. The increased dose of diphenhydramine was 100 mg, regardless of subjective response.
Study medication was administered at approximately 9 AM, after which participants were required to stay in the session room with the therapists for at least 8 hours (except for bathroom breaks). During the session, participants were encouraged to lie on a couch wearing eyeshades and headphones providing a standardized playlist of music. Medications were available in the session room to treat hypertension, severe anxiety, or psychotic symptoms.
The pre-specified primary drinking outcome was the percentage of heavy drinking days (PH DD) during […], assessed at weeks 8, 12, 24, and 36 using the timeline followback, a reliable and valid calendar-based method which is the gold standard outcome for AUD clinical trials.^43-47 Secondary outcomes included percent drinking days (PDD), average drinks per day (DPD), and dichotomous outcomes: abstinence, lack of heavy drinking days, and reduction in World Health Organization risk level^48 by one, two, or three levels. Hair or fingernail samples were collected at week 24 and assayed for ethylglucuronide (EtG) concentration to confirm self-reported abstinence. The Short Index of Problems (SIP-2R)^49 was used to assess drinking-related problems at baseline and weeks 12, 24, and 36. […]

[1] = system: alcohol-dependent participants; conditions: psilocybin 21-28 mg/70 kg, open-label; cited from earlier work
[2] = 32-week double-blind follow-up (weeks 5-36)

CN(C)CCc1c[nH]c2cccc(OP(=O)(O)O)c12 [Psilocybin, [3-[2-(dirnethylamino)ethyl]-1H-indo1-4-yl] dihydrogen phosphate]
% of Drinking days, between-group Hedges g (AUD patients; 32-week double-blind follow-up): 0.4 | % of Drinking days, between-group mean difference (diphenhydramine-psilocybin) (AUD patients; 32-week double-blind follow-up): 13.44% | Drinks per day, between-group Hedges g (AUD patients; 32-week double-blind follow-up): 0.54 | Drinks per day, between-group mean difference (diphenhydramine-psilocybin) (AUD patients; 32-week double-blind follow-up): 1.09 Drinks per day | % of Drinking days (PDD), mean (AUD patients; [2]): 29.39% | % of Heavy drinking days, between-group mean difference (diphenhydramine-psilocybin) (AUD patients; [2]): 13.86% | Drinks per day (DPD), mean (AUD patients; [2]): 1.17 Drinks per day | % of Heavy drinking days (PHDD), mean (AUD patients): 9.71% | % of Heavy drinking days (PHDD), mean (AUD patients; listed as psilocybin): 9.7% | % of Heavy drinking days, between-group mean difference (diphenhydramine-psilocybin) (AUD patients; 32-week double-blind follow-up (weeks 5-36), listed as psilocybin): 13.86% and 13.9% | % of Heavy drinking days, between-group Hedges g (AUD patients; 32-week double-blind follow-up, positive = lower mean in psilocybin group): 0.52 | PHDD of psilocybin-treated participants as percent of that in the diphenhydramine-treated group (AUD patients; 32 weeks of double-blind observation): 41% | Abstinence, % of participants (AUD patients; Weeks 5-36): 22.9% | Abstinence, No. of participants (AUD patients; Weeks 5-36): 11 | No heavy drinking, % of participants (AUD patients; Weeks 5-36): 33.3% | No heavy drinking, No. of participants (AUD patients; Weeks 5-36): 16 | WHO risk level Decrease 1, % of participants (AUD patients; Weeks 5-36): 83.3% | WHO risk level Decrease 2, % of participants (AUD patients; Weeks 5-36): 60.4% | WHO risk level Decrease 2, No. of participants (AUD patients; Weeks 5-36): 29 | WHO risk level Decrease 3, % of participants (AUD patients; Weeks 5-36): 29.2% | WHO risk level Decrease 3, No. of participants (AUD patients; Weeks 5-36): 14 | Abstinence, NNT (AUD patients; Weeks 5-36): 7.1 | Abstinence, OR (AUD patients; Weeks 5-36): 3.05 | No heavy drinking, NNT (AUD patients; Weeks 5-36): 4.5 | No heavy drinking, OR (AUD patients; Weeks 5-36): 4 | WHO risk level Decrease 1, NNT (AUD patients; Weeks 5-36): 8.2 | WHO risk level Decrease 1, OR (AUD patients; Weeks 5-36): 2.03 | WHO risk level Decrease 2, NNT (AUD patients; Weeks 5-36): 4.9 | WHO risk level Decrease 2, OR (AUD patients; Weeks 5-36): 2.29 | WHO risk level Decrease 3, NNT (AUD patients; Weeks 5-36): 6.3 | WHO risk level Decrease 3, OR (AUD patients; Weeks 5-36): 2.68 | WHO risk level Decrease 1, No. of participants (AUD patients; Weeks 5-36, relative to 12 weeks prior to screening): 40 | Abstinence, % of participants (AUD patients; Weeks 33-36): 47.9% | Abstinence, No. of participants (AUD patients; Weeks 33-36): 23 | No heavy drinking, % of participants (AUD patients; Weeks 33-36): 62.5% | No heavy drinking, No. of participants (AUD patients; Weeks 33-36): 30 | WHO risk level Decrease 1, % of participants (AUD patients; Weeks 33-36): 89.6% | WHO risk level Decrease 1, No. of participants (AUD patients; Weeks 33-36): 43 | WHO risk level Decrease 2, % of participants (AUD patients; Weeks 33-36): 60.4% | WHO risk level Decrease 2, No. of participants (AUD patients; Weeks 33-36): 29 | WHO risk level Decrease 3, % of participants (AUD patients; Weeks 33-36): 37.5% | WHO risk level Decrease 3, No. of participants (AUD patients; Weeks 33-36): 18 | Abstinence, NNT (AUD patients; Weeks 33-36): 4.3 | Abstinence, OR (AUD patients; Weeks 33-36): 2.84 | No heavy drinking, NNT (AUD patients; Weeks 33-36): 4.4 | No heavy drinking, OR (AUD patients; Weeks 33-36): 2.5 | WHO risk level Decrease 1, NNT (AUD patients; Weeks 33-36): 4 | WHO risk level Decrease 1, OR (AUD patients; Weeks 33-36): 4.74 | WHO risk level Decrease 2, NNT (AUD patients; Weeks 33-36): 4.9 | WHO risk level Decrease 2, OR (AUD patients; Weeks 33-36): 2.29 | WHO risk level Decrease 3, NNT (AUD patients; Weeks 33-36): 5.1 | WHO risk level Decrease 3, OR (AUD patients; Weeks 33-36): 2.78 | Tolerability [1]: well tolerated
